Series [1] has as its target T1, human cloned 5-HT2B receptors (Homo sapiens, UniProt P41595).
T1 construct: expressed in transfected cells; host or cells: CHO-K1 cells
The series can be described thus: Human cloned 5-HT2B cell-based functional assay (Fluo-4, CHO.K1 cells). The settings on record: inhibition of 5-HT response, CHO.K1 cells expressing cloned 5-HT2B, Fluo-4 AM. Here is the method:
The following describes an in vitro functional assay using human cloned 5-HT2B receptors to determine the ability of compounds to block the receptor. CHO.K1 cells expressing cloned 5-HT2B receptor were maintained In Ultra-CHO medium containing 400 μg/ml of G418, 100 U/ml penicillin, 100 μg/ml streptomycin, 2.5 μg/ml fungizone, in 95/5% O2/CO2 at 37° C. Ultra-CHO medium additionally supplemented with 1% foetal bovine serum was used when seeding the cells and removed after 5 hours. Cells were plated in Costar 96 well white, clear-bottomed plate at a density of 50,000 cells per well and incubated for at least 24 hours in 95/5% O2/CO2 at 37° C. before running the assay. Media was removed from the wells and 200 μl of 4 μM Fluo-4 AM added, this was incubated in a Wallace Victor 2V workstation at 37° C. for 30 minutes. The Fluo-4 AM was then removed from the wells, which were then washed twice with 200 μl of buffer (HBSS without calcium/magnesium/phenol red, 20 mM HEPES, 1 mM Ca^2+, 1 mM Mg^2+, 2.5 mM probenecid, pH to 7.4), 180 μl of buffer or test compound was added to the well and incubated for 30 minutes. The Victor 2V injectors were used to inject 20 μl of 5-HT after obtaining 10 0.1-second baseline readings at 535 nm, followed by 150 readings. All test compounds were aliquoted in 100% DMSO at 10 mM and diluted to 1 mM in 50% DMSO, subsequent dilutions were made using buffer. Buffer was also used to dilute the 5-HT. Data were analysed using Microsoft Excel and GraphPad Prism, with the latter used to produce sigmoidal dose-response curves for each compound. The compound concentration that inhibited the 5-HT response by 50% was taken (IC50-M), and the results are shown in Table 3, as pIC50, being the negative log (to the base 10) of the measured IC50 values.

The target in series [2] is T2, cloned human 5-HT2A receptor (Homo sapiens, UniProt P28223).
T2 construct: purchased Euroscreen; host or cells: CHO-K1 cells
T2 sequence (P28223 whole entry): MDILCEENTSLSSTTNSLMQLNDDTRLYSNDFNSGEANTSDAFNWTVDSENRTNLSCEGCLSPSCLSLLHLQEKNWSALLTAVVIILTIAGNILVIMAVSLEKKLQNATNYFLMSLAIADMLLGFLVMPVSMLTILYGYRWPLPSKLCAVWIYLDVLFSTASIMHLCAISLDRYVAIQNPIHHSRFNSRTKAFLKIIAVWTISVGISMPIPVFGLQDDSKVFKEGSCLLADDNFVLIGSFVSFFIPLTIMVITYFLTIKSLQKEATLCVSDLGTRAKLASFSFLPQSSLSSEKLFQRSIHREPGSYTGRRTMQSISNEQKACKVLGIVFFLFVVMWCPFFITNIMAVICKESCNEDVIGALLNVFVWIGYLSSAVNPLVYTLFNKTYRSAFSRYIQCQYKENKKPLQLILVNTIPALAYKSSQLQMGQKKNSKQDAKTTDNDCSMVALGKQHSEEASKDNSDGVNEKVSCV
Put plainly: Human 5-HT2A receptor binding assay ([3H]ketanserin, CHO-K1 membranes). The settings on record: displacement of [3H]ketanserin (1 nM), read-out: 5-HT2A pKi (converted). Here is the method:
(§1) The binding affinity of ligands for human 5-HT2A and 5-HT2C receptors was determined using the following assay.
Membrane preparations from CHO-K1 cells expressing the cloned human 5-HT2A receptor were obtained (Euroscreen). The membranes were thawed rapidly and diluted in assay buffer containing Tris-HCl (50 mM, pH 7.7). The membranes were resuspended by homogenisation, prior to adding 15 μg of membranes to assay wells containing [3H] ketanserin (1 nM), assay buffer (50 mM Tris at pH 7.4) containing pargyline (10 μM), and test compounds (1×10^−10 to 1×10^−4M). Non specific binding was determined in the presence of 100 μM mianserin. After 15 minutes incubation at 37° C., the assay mixture was filtered through a combination of GF-C and GF-B filters, pre-soaked in 0.05% Brij, using a Brandel cell harvester, and were washed three times using ice cold Tris-HCl buffer (50 mM). Radioactivity retained on the filters was determined by liquid scintillation counting. For each test compound, the concentration that inhibited binding of [^3H]ketanserin by 50% was determined using curve fitting software (Prism). Kd values (concentration of ketanserin required to occupy 50% of the receptor binding sites at equlibrium) determined from saturation binding studies were then used to calculate inhibition dissociation constants (Ki) using the following equation: […]
For orientation: Loss of bound radioactivity is the signal in a displacement assay; it reports binding, not function.

Series [3] addresses T3, cloned human 5-HT2C receptor (Homo sapiens, UniProt P28335).
T3 construct: purchased Euroscreen; host or cells: CHO-K1 cells
T3 sequence (P28335 33-458): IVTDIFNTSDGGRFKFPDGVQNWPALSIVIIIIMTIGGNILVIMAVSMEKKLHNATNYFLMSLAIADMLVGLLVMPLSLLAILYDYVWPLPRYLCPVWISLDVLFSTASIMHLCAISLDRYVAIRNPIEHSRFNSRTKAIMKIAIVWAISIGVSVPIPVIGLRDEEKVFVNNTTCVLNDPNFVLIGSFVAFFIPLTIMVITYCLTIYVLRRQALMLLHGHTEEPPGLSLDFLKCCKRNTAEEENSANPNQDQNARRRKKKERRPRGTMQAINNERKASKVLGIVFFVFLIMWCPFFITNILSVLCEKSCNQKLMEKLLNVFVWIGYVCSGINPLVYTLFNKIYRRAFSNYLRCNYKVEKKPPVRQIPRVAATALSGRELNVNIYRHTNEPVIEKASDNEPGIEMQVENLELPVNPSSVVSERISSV
The series can be described thus: Human 5-HT2C receptor binding assay ([3H]mesulergine, CHO-K1 membranes). The settings on record: displacement of [3H]mesulergine (1 nM), read-out: 5-HT2C pKi (converted). On the procedure:
as §1
Membrane preparations from CHO-K1 cells expressing the cloned human 5-HT2C receptor were obtained (Euroscreen). The membranes were thawed rapidly and diluted in assay buffer containing Tris-HCl (50 mM, pH 7.7), ascorbic acid (0.1%) and pargyline (10 μM). The membranes were resuspended by homogenisation, prior to adding 6 μg of membranes to assay wells containing [^3H] mesulergine (1 nM), assay buffer (50 mM Tris at pH 7.7 and 0.1% ascorbic acid) containing pargyline (10 μM), and test compounds (1×10^−10 to 1×10^−4M). Non specific binding was determined in the presence of 100 μM mianserin. After 30 minutes incubation at 37° C., the assay mixture was filtered through a combination of GF-C and GF-B filters, pre-soaked in 1% bovine serum albumin, using a Brandel cell harvester, and were washed three times using ice cold Tris-HCl buffer (50 mM). Radioactivity retained on the filters was determined by liquid scintillation counting. For each test compound, the concentration that inhibited binding of [3H]mesulergine by 50% was determined using curve fitting software (Prism). Kd values (concentration of mesulergine required to occupy 50% of the receptor binding sites at equlibrium) determined from saturation binding studies were then used to calculate inhibition dissociation constants (Ki) using the following equation: […]

The target of series [4] is T1, human cloned 5-HT2B receptors. Put plainly: Human cloned 5-HT2B receptor binding assay ([3H]LSD, CHO-K1 membranes). The settings on record: displacement of [3H]LSD (1 nM), read-out: 5-HT2B pKi (converted). Here is the method:
The binding affinity of the compounds for human cloned 5-HT2B receptors was determined using the following assay.
CHO-K1 cells expressing cloned 5-HT2B receptor were maintained in Ultra-CHO medium containing 400 μg/ml of G418, 100 U/ml penicillin, 100 μg/ml streptomycin, 2.5 μg/ml fungizone and 1% foetal bovine serum, in 95/5% O2/CO2 at 37° C. The cells were harvested using 0.25% trypsin and were centrifuged at 800 rpm for 8 minutes. The cells were homogenised in 50 mM HEPES buffer containing 1 mM disodium EDTA and 1 mM PMSF at pH 7.4, using a Dounce homogeniser (20 strokes). The homogenate was centrifuged at 2280 rpm (1000 g) and 4° C. for 10 minutes, after which the supernatant was removed by decanting. The pellet was re-homogenised as above, and the resulting supernatant removed and combined with that already obtained. The supernatant solution was then centrifuged at 18300 rpm (40000 g) for 10 minutes at 4° C. using a Sorvall centrifuge. The supernatant was removed, and the pellet was re-suspended in 50 mM buffer at pH 7.4 using a Ultra-turrax T25 Polytron, before centrifugation again at 40000 g as above. This wash procedure was repeated, after which the membrane preparation was stored at a concentration of 1 mg/ml at −80° C. until use.
The membranes were thawed rapidly and diluted in assay buffer containing Tris-HCl (50 mM, pH 7.4), ascorbic acid (0.1%) and calcium chloride (4 mM). The membranes were homogenised to resuspend them, prior to adding 10 or 15 μg of membranes to assay wells containing [^3H]LSD (1 nM), assay buffer (50 mM Tris, 4 mM calcium chloride and 0.1% ascorbic acid) containing pargyline (10 μM), and the test compounds (1×10^−10 to 1×10^−4M). Non specific binding was determined in the presence of 100 μM 5-HT. After 30 minutes incubation at 37° C., the assay mixture was filtered through a combination of GF-C and GF-B filters, pre-soaked in 1% polyethyleneimine, using a Brandel cell harvester, and were washed three times using 50 mM Tris-HCl. Radioactivity retained on the filters was determined by liquid scintillation counting. For each test compound, the concentration that inhibited binding of [3H]LSD by 50% was determined using curve fitting software (Prism). Kd values (concentration of LSD required to occupy 50% of the receptor binding sites at equilibrium) determined from saturation binding studies were then used to calculate inhibition dissociation constants (Ki) using the following equation: […]
This approach follows that set out in Kenakin, T.P. Pharmacologic analysis of drug-receptor interaction. Raven Press, New York, 2nd Edition.

T1 sequence (P41595 whole entry): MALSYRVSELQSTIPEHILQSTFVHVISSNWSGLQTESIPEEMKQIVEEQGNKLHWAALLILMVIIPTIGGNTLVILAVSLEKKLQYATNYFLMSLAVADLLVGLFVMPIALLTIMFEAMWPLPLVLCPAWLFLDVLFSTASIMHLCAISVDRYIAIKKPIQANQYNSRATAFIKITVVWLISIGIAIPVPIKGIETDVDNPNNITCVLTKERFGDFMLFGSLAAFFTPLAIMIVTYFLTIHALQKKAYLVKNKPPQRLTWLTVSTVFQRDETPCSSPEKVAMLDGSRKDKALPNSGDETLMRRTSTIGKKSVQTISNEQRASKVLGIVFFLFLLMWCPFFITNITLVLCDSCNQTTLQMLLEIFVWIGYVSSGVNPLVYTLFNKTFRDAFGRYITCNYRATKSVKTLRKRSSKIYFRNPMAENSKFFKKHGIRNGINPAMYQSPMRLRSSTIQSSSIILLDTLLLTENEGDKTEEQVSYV

The term IC50 denotes the concentration that gives 50% inhibition. The low end stands for higher potency, the high end for lower potency. For the molecule `Nc1nc(-c2ccc3ccccc3c2)co1` [Compound 16, 4-naphthalen-2-yl-oxazol-2-ylamine], the IC50 in series [1] is under 10000 nM. Moreover, the Ki was over 10000 nM in series [2], over 10000 nM in series [3] and under 1000 nM in series [4].
A word on the melting point: it is the temperature of the solid-liquid transition. The molecule `CNc1nc(-c2cccc3ccccc23)co1` [Compound 2, 2-methylamino-4-(naphth-1-yl)oxazole] registered a melting point of 164 to 166 °C. Moreover, in series [1], the IC50 is under 10000 nM. The Ki in series [2] was over 10000 nM. Besides, the Ki in series [3] was over 1000 nM. In addition, in series [4], the Ki was under 1000 nM.
The like results for `Cc1nc(N)oc1-c1cccc2ccccc12` [Compound 3, 2-amino-4-methyl-5-(naphth-1-yl)oxazole] were, in that order, 187 to 189 °C, under 100 nM, over 10000 nM, over 10000 nM and under 10 nM.
For `COc1ccc2ccccc2c1-c1coc(NC(C)=O)n1` [Compound 25, N-[4-(2-methoxy-naphthalen-1-yl)-oxazol-2-yl]-acetamide], the IC50 in series [1] is under 1000 nM. In addition, the results for the Ki in series [2], in series [3] and in series [4] were over 1000 nM, over 1000 nM and under 100 nM, respectively.
